Measured values reported in patent publication US10508085B2, “Compounds and methods for IDO and TDO modulation, and indications therefor” (Plexxikon Inc., priority 2016, dated 2019).

Tests used:
[1] = target: T1, Human Indoleamine 2,3-dioxygenase (IDO) (Homo sapiens, UniProt P14902); test: Human IDO enzymatic assay (kynurenine level); format: biochemical; details: 6 nM IDO, 10 μM L-Trp; geometric mean; read-out: IDO1 GMean: IC50 (μM) (Biochemical Assay)
T1 construct: His tag (N); made in house; host or cells: E. coli
T1 sequence (P14902 whole entry): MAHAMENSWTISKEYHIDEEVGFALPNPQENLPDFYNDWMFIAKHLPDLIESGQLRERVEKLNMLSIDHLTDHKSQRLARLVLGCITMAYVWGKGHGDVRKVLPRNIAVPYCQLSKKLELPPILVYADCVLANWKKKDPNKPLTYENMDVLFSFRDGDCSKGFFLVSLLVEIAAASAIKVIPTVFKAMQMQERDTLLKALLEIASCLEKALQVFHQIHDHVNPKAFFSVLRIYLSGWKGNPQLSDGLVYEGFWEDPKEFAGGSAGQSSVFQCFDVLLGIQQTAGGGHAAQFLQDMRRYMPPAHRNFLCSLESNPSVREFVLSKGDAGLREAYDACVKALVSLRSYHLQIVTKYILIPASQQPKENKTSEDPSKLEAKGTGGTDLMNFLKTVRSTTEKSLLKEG
Summary of the method: (§1)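 Compound is mixed with His-tagged enzyme from E. coli in pH 6.5 phosphate buffer containing ascorbate, methylene blue and catalase, at room temperature. IDO uses 6 nM enzyme and 10 μM Trp for 20 min. TDO uses 1 nM enzyme and 350 μM Trp for 70 min. TCA stops the reaction, and IC50 is derived from kynurenine levels.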

[2] = target: T2, Human Tryptophan 2,3-dioxygenase (TDO) (Homo sapiens, UniProt P48775); test: Human TDO enzymatic assay (kynurenine level); format: biochemical; details: 1 nM TDO, 350 μM L-Trp; geometric mean; read-out: TDO GMean: IC50 (μM) (Biochemical Assay)
T2 construct: His tag (N); made in house; host or cells: E. coli
T2 sequence (P48775 whole entry): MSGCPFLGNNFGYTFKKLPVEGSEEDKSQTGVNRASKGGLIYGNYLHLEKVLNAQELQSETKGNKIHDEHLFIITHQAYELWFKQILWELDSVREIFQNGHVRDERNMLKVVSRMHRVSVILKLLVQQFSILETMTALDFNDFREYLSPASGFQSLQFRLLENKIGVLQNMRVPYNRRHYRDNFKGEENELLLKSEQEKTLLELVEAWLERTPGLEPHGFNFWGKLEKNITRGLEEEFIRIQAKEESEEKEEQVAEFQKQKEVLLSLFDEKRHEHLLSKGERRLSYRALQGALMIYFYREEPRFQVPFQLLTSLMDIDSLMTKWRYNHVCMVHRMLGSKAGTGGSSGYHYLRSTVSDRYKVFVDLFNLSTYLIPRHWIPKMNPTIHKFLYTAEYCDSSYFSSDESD
Summary of the method: as §1

[3] = target: T3, human IDO (IDO1-expressing HEK293 cells) (Homo sapiens, UniProt P14902); test: Cell based kynurenine assay, IDO1-expressing HEK293 cell clones; details: IDO1-expressing HEK293 cells, 24 hours incubation; geometric mean; read-out: HEK293 IDO1 Kynurenine GMean IC50 (μM) (Cellular Assay)
T3 construct: expressed in transfected cells
T3 sequence (P14902 whole entry): as the sequence (P14902 whole entry) above
Summary of the method: (§2)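 HEK293 clones stably expressing human IDO1 or human TDO (CMV promoter), 2.5×10^4 cells/well, given serial compound dilutions for 24 h. Kynurenine measured in supernatant; inhibition relative to cell/0.2% DMSO and media-only controls. IC50 by nonlinear regression.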

[4] = target: T4, human TDO (TDO-expressing HEK293 cells) (Homo sapiens, UniProt P48775); test: Cell based kynurenine assay, TDO-expressing HEK293 cell clones; details: TDO-expressing HEK293 cells, 24 hours incubation; geometric mean; read-out: HEK293 TDO Kynurenine GMean IC50 (μM) (Cellular Assay)
T4 construct: expressed in transfected cells
T4 sequence (P48775 whole entry): as the sequence (P48775 whole entry) above
Summary of the method: as §2

Structure (SMILES)	IC50 [1]	IC50 [2]	IC50 [3]	IC50 [4]
CS(=O)(=O)N1CCC(C(F)(F)C(O)c2c3c(cc4cn[nH]c24)CC3)CC1 (centres unmarked) [Compound P-0296, 1-(5,6-dihydro-1H-cyclobuta[f]indazol-7-yl)-2,2-difluoro-2-(1-(methylsulfonyl)piperidin-4-yl)ethan-1-ol]	0.0001 to 10 µM	0.0001 to 10 µM	0.0001 to 10 µM	> 10 µM
CC(C)(C1CCS(=O)(=O)CC1)C(O)c1cc(Cl)cc2cn[nH]c12 (centres unmarked) [Compound P-0297, 4-(1-(5-chloro-1H-indazol-7-yl)-1-hydroxy-2-methylpropan-2-yl)tetrahydro-2H-thiopyran 1,1-dioxide]	0.0001 to 10 µM	0.0001 to 10 µM	0.0001 to 10 µM	0.0001 to 10 µM
CC(C)(C1CCS(=O)(=O)CC1)C(O)c1c(F)c(Cl)cc2cn[nH]c12 (centres unmarked) [Compound P-0298, 4-(1-(5-chloro-6-fluoro-1H-indazol-7-yl)-1-hydroxy-2-methylpropan-2-yl)tetrahydro-2H-thiopyran 1,1-dioxide]	0.0001 to 10 µM	0.0001 to 10 µM	0.0001 to 10 µM	0.0001 to 10 µM
OC(c1c(F)c(Cl)cc2cn[nH]c12)C12CCC(F)(CC1)CC2 (centres unmarked) [Compound P-0299, (5-chloro-6-fluoro-1H-indazol-7-yl)(4-fluorobicyclo[2.2.2]octan-1-yl)methanol]	0.0001 to 10 µM	0.0001 to 10 µM	0.0001 to 10 µM	0.0001 to 10 µM
CC(=O)N1C2CCC1CC(C(C)(C)C(O)c1c(F)c(Cl)cc3cn[nH]c13)C2 (centres unmarked) [Compound P-0300]	0.0001 to 10 µM	0.0001 to 10 µM	0.0001 to 10 µM	0.0001 to 10 µM
OC(c1c(F)c(Cl)cc2cn[nH]c12)C12CCC(C(F)(F)F)(CC1)CC2 (centres unmarked) [Compound P-0301, (5-chloro-6-fluoro-1H-indazol-7-yl)(4-(trifluoromethyl)bicyclo[2.2.2]octan-1-yl)methanol]	0.0001 to 10 µM	0.0001 to 10 µM	0.0001 to 10 µM	0.0001 to 10 µM
CC(=O)N1C[C@H]2CC[C@@H](C1)[C@H]2C(F)(F)C(O)c1cc(Cl)cc2cn[nH]c12 (stereo partly drawn) [Compound P-0302, 1-((1R,5S,8s)-8-(2-(5-chloro-1H-indazol-7-yl)-1,1-difluoro-2-hydroxyethyl)-3-azabicyclo[3.2.1]octan-3-yl)ethan-1-one]	0.0001 to 10 µM	0.0001 to 10 µM	0.0001 to 10 µM	0.0001 to 10 µM
CC(=O)N1C[C@H]2CC[C@@H](C1)[C@@H]2C(F)(F)C(O)c1cc(Cl)cc2cn[nH]c12 (stereo partly drawn) [Compound P-0303, 1-((1R,5S,8s)-8-(2-(5-chloro-1H-indazol-7-yl)-1,1-difluoro-2-hydroxyethyl)-3-azabicyclo[3.2.1]octan-3-yl)ethan-1-one]	0.0001 to 10 µM	0.0001 to 10 µM	0.0001 to 10 µM	0.0001 to 10 µM
CCS(=O)(=O)N1CCC(C(C)(C)C(O)c2cc(Cl)cc3cn[nH]c23)CC1 (centres unmarked) [Compound P-0304, 1-(5-chloro-1H-indazol-7-yl)-2-(1-(ethylsulfonyl)piperidin-4-yl)-2-methylpropan-1-ol]	0.0001 to 10 µM	0.0001 to 10 µM	0.0001 to 10 µM	0.0001 to 10 µM
CCCS(=O)(=O)N1CCC(C(C)(C)C(O)c2cc(Cl)cc3cn[nH]c23)CC1 (centres unmarked) [Compound P-0305, 1-(5-chloro-1H-indazol-7-yl)-2-methyl-2-(1-(propylsulfonyl)piperidin-4-yl)propan-1-ol]	0.0001 to 10 µM	0.0001 to 10 µM	0.0001 to 10 µM	0.0001 to 10 µM
CC(C)(C1CCN(S(=O)(=O)C2CC2)CC1)C(O)c1cc(Cl)cc2cn[nH]c12 (centres unmarked) [Compound P-0306]	0.0001 to 10 µM	0.0001 to 10 µM	0.0001 to 10 µM	0.0001 to 10 µM
CC(C)S(=O)(=O)N1CCC(C(C)(C)C(O)c2cc(Cl)cc3cn[nH]c23)CC1 (centres unmarked) [Compound P-0307, 1-(5-chloro-1H-indazol-7-yl)-2-(1-(isopropylsulfonyl)piperidin-4-yl)-2-methylpropan-1-ol]	0.0001 to 10 µM	0.0001 to 10 µM	0.0001 to 10 µM	0.0001 to 10 µM
CN(C)S(=O)(=O)N1CCC(C(C)(C)C(O)c2cc(Cl)cc3cn[nH]c23)CC1 (centres unmarked) [Compound P-0308, 4-(1-(5-chloro-1H-indazol-7-yl)-1-hydroxy-2-methylpropan-2-yl)-N,N-dimethylpiperidine-1-sulfonamide]	0.0001 to 10 µM	0.0001 to 10 µM	0.0001 to 10 µM	0.0001 to 10 µM
CC(C)(C1CCN(S(=O)(=O)c2ccccc2)CC1)C(O)c1cc(Cl)cc2cn[nH]c12 (centres unmarked) [Compound P-0309, 1-(5-chloro-1H-indazol-7-yl)-2-methyl-2-(1-(phenylsulfonyl)piperidin-4-yl)propan-1-ol]	0.0001 to 10 µM	0.0001 to 10 µM	0.0001 to 10 µM	0.0001 to 10 µM
CC(=O)N1CCC(C(C)(C)C(O)c2cc(Cl)cc3cn[nH]c23)CC1 (centres unmarked) [Compound P-0310, 1-(4-(1-(5-chloro-1H-indazol-7-yl)-1-hydroxy-2-methylpropan-2-yl)piperidin-1-yl)ethan-1-one]	0.0001 to 10 µM	0.0001 to 10 µM	0.0001 to 10 µM	0.0001 to 10 µM
CCC(=O)N1CCC(C(C)(C)C(O)c2cc(Cl)cc3cn[nH]c23)CC1 (centres unmarked) [Compound P-0311, 1-(4-(1-(5-chloro-1H-indazol-7-yl)-1-hydroxy-2-methylpropan-2-yl)piperidin-1-yl)propan-1-one]	0.0001 to 10 µM	0.0001 to 10 µM	0.0001 to 10 µM	0.0001 to 10 µM
CC(C)(C1CCN(C(=O)C2CC2)CC1)C(O)c1cc(Cl)cc2cn[nH]c12 (centres unmarked) [Compound P-0312, (4-(1-(5-chloro-1H-indazol-7-yl)-1-hydroxy-2-methylpropan-2-yl)piperidin-1-yl)(cyclopropyl) methanone]	0.0001 to 10 µM	0.0001 to 10 µM	0.0001 to 10 µM	0.0001 to 10 µM
CNC(=O)N1CCC(C(C)(C)C(O)c2cc(Cl)cc3cn[nH]c23)CC1 (centres unmarked) [Compound P-0314, 4-(1-(5-chloro-1H-indazol-7-yl)-1-hydroxy-2-methylpropan-2-yl)-N-methylpiperidine-1-carboxamide]	0.0001 to 10 µM	0.0001 to 10 µM	0.0001 to 10 µM	0.0001 to 10 µM

Other lines, results leading:

IC50 [1]	IC50 [2]	IC50 [3]	IC50 [4]	Structure (SMILES)
0.0001 to 10 µM	0.0001 to 10 µM	0.0001 to 10 µM	0.0001 to 10 µM	CC(C)NC(=O)N1CCC(C(C)(C)C(O)c2cc(Cl)cc3cn[nH]c23)CC1 (centres unmarked) [Compound P-0315, 4-(1-(5-chloro-1H-indazol-7-yl)-1-hydroxy-2-methylpropan-2-yl)-N-isopropylpiperidine-1-carboxamide]
0.0001 to 10 µM	0.0001 to 10 µM	0.0001 to 10 µM	0.0001 to 10 µM	CC(C)(C1CCN(C(=O)NC2CCCC2)CC1)C(O)c1cc(Cl)cc2cn[nH]c12 (centres unmarked) [Compound P-0316, 4-(1-(5-chloro-1H-indazol-7-yl)-1-hydroxy-2-methylpropan-2-yl)-N-cyclopentylpiperidine-1-carboxamide]
0.0001 to 10 µM	0.0001 to 10 µM	0.0001 to 10 µM	0.0001 to 10 µM	CC(C)(C1CCN(C(=O)Nc2ccccc2)CC1)C(O)c1cc(Cl)cc2cn[nH]c12 (centres unmarked) [Compound P-0317, 4-(1-(5-chloro-1H-indazol-7-yl)-1-hydroxy-2-methylpropan-2-yl)-N-phenylpiperidine-1-carboxamide]
0.0001 to 10 µM	0.0001 to 10 µM	0.0001 to 10 µM	0.0001 to 10 µM	CN1CCC(C(C)(C)C(O)c2cc(Cl)cc3cn[nH]c23)CC1 (centres unmarked) [Compound P-0318, 1-(5-chloro-1H-indazol-7-yl)-2-methyl-2-(1-methylpiperidin-4-yl)propan-1-ol]
0.0001 to 10 µM	0.0001 to 10 µM	0.0001 to 10 µM	0.0001 to 10 µM	CC(C)(C1CCN(C2CC2)CC1)C(O)c1cc(Cl)cc2cn[nH]c12 (centres unmarked) [Compound P-0319, 1-(5-chloro-1H-indazol-7-yl)-2-(1-cyclopropylpiperidin-4-yl)-2-methylpropan-1-ol]
0.0001 to 10 µM	0.0001 to 10 µM	0.0001 to 10 µM	0.0001 to 10 µM	CC(C)(C1CCN(C2CCCC2)CC1)C(O)c1cc(Cl)cc2cn[nH]c12 (centres unmarked) [Compound P-0320, 1-(5-chloro-1H-indazol-7-yl)-2-(1-cyclopentylpiperidin-4-yl)-2-methylpropan-1-ol]
0.0001 to 10 µM	0.0001 to 10 µM	0.0001 to 10 µM	0.0001 to 10 µM	COC(=O)N1CCC(C(C)(C)C(O)c2cc(Cl)cc3cn[nH]c23)CC1 (centres unmarked) [Compound P-0321, methyl 4-(1-(5-chloro-1H-indazol-7-yl)-1-hydroxy-2-methylpropan-2-yl)piperidine-1-carboxylate]
0.0001 to 10 µM	0.0001 to 10 µM	0.0001 to 10 µM	0.0001 to 10 µM	CCOC(=O)N1CCC(C(C)(C)C(O)c2cc(Cl)cc3cn[nH]c23)CC1 (centres unmarked) [Compound P-0322, ethyl 4-(1-(5-chloro-1H-indazol-7-yl)-1-hydroxy-2-methylpropan-2-yl)piperidine-1-carboxylate]
